Measurements as given in ChEMBL document CHEMBL4251601 (Eur J Med Chem, 2018).

Experiments:
[1] = system: Mitogen-activated protein kinase kinase kinase 7; assay: Inhibition of TAK1 (unknown origin) at 0.1 uM by TR-FRET assay relative to control; conditions: Homo sapiens
[2] = biological target: Serine/threonine-protein kinase 26 (Homo sapiens) (UniProt Q9P289); assay: Inhibition of recombinant human full length GST-tagged MST4 expressed in baculovirus expression system at 0.1 uM by Z'-Lyte assay relative to control
[3] = system: Epidermal growth factor receptor (Homo sapiens), P00533 [UNDEFINED MUTATION]; assay: Inhibition of recombinant human EGFR d746 to 750 deletion/T790M mutant at 0.1 uM by TR-FRET assay relative to control
[4] = biological target: Mitogen-activated protein kinase kinase kinase 9 (Homo sapiens) (UniProt P80192); assay: Inhibition of recombinant human GST-tagged MLK1 expressed in baculovirus expression system at 0.1 uM by Z'-Lyte assay relative to control
[5] = biological target: Serine/threonine-protein kinase TAO2 (Homo sapiens) (UniProt Q9UL54); assay: Inhibition of recombinant human GST-tagged TAOK2 expressed in baculovirus expression system at 1 uM by Z'-Lyte assay relative to control
[6] = biological target: High affinity nerve growth factor receptor (Homo sapiens) (UniProt P04629); assay: Inhibition of recombinant human His-tagged TRKA cytoplasmic domain expressed in baculovirus expression system at 1 uM by Z'-Lyte assay relative to control
Sequence of High affinity nerve growth factor receptor (Homo sapiens) (P04629 33-796 limits assumed): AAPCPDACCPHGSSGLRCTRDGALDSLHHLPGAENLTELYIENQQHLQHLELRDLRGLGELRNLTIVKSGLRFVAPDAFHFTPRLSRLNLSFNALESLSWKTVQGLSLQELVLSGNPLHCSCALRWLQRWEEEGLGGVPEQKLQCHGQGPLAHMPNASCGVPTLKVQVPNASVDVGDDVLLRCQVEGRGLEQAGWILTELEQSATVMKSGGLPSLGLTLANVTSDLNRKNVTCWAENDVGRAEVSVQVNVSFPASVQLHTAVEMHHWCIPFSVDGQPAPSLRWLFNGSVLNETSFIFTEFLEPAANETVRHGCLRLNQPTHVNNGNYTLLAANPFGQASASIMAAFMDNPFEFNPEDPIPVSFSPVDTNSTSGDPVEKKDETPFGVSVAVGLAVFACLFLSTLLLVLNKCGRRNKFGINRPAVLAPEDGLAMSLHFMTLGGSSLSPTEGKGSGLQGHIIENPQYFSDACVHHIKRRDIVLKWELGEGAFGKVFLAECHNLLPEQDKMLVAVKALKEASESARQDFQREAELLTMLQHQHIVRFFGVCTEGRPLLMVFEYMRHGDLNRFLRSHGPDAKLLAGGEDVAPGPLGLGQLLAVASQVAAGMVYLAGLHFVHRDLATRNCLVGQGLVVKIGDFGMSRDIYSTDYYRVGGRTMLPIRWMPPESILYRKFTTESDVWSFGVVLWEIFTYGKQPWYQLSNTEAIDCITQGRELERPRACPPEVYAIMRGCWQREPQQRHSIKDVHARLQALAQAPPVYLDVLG

U-87 MG [7] = assay: Antitumor activity against luciferase-fused human U87MG cells orthotopically xenografted in nude mouse assessed as tumor growth inhibition at 12.5 mg/kg, po qd for 4 weeks by bioluminescence imaging relative to control; type: functional, U-87MG ATCC; conditions: 672 h, read-out: TGI
[8] = biological target: Tyrosine-protein kinase Lyn (Homo sapiens) (UniProt P07948); assay: Inhibition of recombinant human full length GST-tagged Lyn-A expressed in insect cells at 1 uM by Z'-Lyte assay relative to control
Sequence of Tyrosine-protein kinase Lyn (Homo sapiens) (P07948 2-512 limits assumed): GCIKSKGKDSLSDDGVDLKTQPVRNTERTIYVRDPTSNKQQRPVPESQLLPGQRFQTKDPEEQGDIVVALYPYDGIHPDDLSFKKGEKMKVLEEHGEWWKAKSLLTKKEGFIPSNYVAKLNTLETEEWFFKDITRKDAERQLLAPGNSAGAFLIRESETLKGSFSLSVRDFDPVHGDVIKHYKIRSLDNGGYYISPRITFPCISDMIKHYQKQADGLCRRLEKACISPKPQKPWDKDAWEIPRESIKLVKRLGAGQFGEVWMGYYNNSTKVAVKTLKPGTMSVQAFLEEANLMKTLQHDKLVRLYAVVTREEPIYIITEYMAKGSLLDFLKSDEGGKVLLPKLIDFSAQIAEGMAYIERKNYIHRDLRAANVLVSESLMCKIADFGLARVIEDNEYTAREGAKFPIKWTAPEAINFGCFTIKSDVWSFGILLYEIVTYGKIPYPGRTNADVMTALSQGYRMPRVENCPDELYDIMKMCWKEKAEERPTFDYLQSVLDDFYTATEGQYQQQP

[9] = biological target: Tyrosine-protein kinase Mer (Homo sapiens) (UniProt Q12866); assay: Inhibition of recombinant human GST-tagged MERTK (578 to 872 residues) expressed in baculovirus expression system at 1 uM by Z'-Lyte assay relative to control
CDK6/cyclin D3 = CDK6/cyclin D3 (Homo sapiens, UniProt Q00534); assay: Inhibition of CDK6/Cyclin-D3 (unknown origin) using histoneH1 as substrate after 90 mins by ADP-Glo assay; type: protein-complex assay
[10] = biological target: Dual specificity tyrosine-phosphorylation-regulated kinase 3 (Homo sapiens) (UniProt O43781); assay: Inhibition of recombinant full length human GST-tagged DYRK3 expressed in baculovirus expression system at 0.1 uM by Z'-Lyte assay relative to control
[11] = biological target: Leucine-rich repeat serine/threonine-protein kinase 2 (Homo sapiens) (UniProt Q5S007); assay: Inhibition of recombinant human GST-tagged LRRK2 (970 to 2527 residues) expressed in baculovirus expression system at 0.1 uM by TR-FRET assay relative to control
Sequence of Leucine-rich repeat serine/threonine-protein kinase 2 (Homo sapiens) (Q5S007 whole entry, the tested form may be a part): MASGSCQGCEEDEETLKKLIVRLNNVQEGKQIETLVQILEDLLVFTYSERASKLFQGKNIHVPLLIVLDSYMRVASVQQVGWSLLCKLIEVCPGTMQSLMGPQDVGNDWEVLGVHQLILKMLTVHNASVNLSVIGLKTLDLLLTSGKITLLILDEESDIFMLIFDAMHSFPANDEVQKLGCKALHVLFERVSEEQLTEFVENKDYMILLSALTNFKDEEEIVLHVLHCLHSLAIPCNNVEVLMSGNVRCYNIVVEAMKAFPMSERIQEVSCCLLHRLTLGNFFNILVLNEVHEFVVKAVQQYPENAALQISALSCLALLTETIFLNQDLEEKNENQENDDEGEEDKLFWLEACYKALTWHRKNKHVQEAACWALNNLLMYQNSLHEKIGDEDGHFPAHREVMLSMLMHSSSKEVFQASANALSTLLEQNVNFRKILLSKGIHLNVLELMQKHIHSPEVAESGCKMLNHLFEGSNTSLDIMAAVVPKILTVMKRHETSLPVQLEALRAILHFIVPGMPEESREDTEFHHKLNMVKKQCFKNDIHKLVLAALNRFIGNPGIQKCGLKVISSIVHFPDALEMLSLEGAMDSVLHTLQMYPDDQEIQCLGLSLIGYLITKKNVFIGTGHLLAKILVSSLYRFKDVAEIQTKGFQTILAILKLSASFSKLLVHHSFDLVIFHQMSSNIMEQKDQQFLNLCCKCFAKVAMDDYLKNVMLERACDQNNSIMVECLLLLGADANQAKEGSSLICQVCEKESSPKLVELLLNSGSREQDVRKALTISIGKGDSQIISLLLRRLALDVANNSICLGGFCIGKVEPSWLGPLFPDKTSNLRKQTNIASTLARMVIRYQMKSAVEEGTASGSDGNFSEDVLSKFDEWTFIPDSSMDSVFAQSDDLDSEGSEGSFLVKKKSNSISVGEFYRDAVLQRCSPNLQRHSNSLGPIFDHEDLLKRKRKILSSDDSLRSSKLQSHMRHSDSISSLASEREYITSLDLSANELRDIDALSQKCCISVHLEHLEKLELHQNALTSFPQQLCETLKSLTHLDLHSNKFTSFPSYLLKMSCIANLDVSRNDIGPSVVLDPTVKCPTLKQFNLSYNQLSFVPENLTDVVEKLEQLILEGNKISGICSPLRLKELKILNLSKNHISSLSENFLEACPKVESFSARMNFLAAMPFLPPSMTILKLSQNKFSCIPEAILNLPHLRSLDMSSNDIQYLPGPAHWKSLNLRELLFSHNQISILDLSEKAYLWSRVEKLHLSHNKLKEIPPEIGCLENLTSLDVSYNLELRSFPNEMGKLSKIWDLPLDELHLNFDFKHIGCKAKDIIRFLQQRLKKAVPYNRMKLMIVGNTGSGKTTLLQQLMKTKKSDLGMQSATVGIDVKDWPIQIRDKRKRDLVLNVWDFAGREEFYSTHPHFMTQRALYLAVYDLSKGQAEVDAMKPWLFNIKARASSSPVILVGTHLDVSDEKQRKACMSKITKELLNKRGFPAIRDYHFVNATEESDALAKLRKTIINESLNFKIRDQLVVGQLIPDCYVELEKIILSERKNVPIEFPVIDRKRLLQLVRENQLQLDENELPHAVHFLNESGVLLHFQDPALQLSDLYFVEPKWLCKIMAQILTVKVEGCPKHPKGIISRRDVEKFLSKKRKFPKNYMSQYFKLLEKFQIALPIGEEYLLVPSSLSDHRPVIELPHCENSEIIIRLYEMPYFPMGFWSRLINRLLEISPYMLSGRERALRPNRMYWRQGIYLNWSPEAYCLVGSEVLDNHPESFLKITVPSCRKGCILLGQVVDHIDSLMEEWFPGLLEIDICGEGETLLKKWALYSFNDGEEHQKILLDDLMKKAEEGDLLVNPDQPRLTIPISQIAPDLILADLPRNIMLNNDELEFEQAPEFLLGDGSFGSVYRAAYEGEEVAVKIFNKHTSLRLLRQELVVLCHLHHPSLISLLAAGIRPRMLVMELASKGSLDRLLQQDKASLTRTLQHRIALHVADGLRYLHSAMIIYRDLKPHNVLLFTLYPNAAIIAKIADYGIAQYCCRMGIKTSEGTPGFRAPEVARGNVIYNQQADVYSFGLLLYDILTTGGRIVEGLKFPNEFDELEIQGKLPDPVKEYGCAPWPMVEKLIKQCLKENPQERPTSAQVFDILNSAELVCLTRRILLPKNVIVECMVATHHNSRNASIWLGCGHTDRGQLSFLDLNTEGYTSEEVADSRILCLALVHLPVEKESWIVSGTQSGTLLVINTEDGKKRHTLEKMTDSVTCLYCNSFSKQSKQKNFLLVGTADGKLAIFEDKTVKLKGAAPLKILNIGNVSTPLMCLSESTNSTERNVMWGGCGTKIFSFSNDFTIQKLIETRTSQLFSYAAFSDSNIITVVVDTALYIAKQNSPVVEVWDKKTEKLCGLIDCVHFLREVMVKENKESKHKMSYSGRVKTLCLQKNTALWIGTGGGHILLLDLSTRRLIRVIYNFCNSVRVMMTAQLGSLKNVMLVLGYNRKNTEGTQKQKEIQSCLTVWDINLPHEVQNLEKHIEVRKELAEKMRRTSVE

[12] = biological target: Dual specificity protein kinase CLK1 (Homo sapiens) (UniProt P49759); assay: Inhibition of recombinant human GST-tagged CLK1 expressed in Escherichia coli at 1 uM by Z'-Lyte assay relative to control
Mus musculus = assay: Toxicity in nude mouse orthotopically xenografted with luciferase-fused human U87MG cells assessed as body weight loss at 50 mg/kg, po qd for 5 weeks and measured on day 28 relative to control; type: organism-based; conditions: in vivo, 840 h
[13] = biological target: Misshapen-like kinase 1 (Homo sapiens) (UniProt Q8N4C8); assay: Inhibition of recombinant human GST-tagged MINK (1 to 320 residues) expressed in baculovirus expression system at 0.1 uM by Z'-Lyte assay relative to control
[14] = biological target: Fibroblast growth factor receptor 1 (Homo sapiens) (UniProt P11362); assay: Inhibition of recombinant human His-tagged FGFR1 cytoplasmic domain expressed in baculovirus expression system at 1 uM by Z'-Lyte assay relative to control
[15] = biological target: Tyrosine-protein kinase Lck (Homo sapiens) (UniProt P06239); assay: Inhibition of recombinant human full length His-tagged LCK expressed in baculovirus expression system at 0.1 uM by Z'-Lyte assay relative to control
[16] = AUC (0 to infinity) in ICR mouse at 5 mg/kg, po administered as single dose by LC-MS/MS analysis; type: ADME, organism-based; parameters: dose 5 mg/kg, route oral, time infinity; conditions: in vivo
U-87 MG [17] = assay: Antiproliferative activity against human U87MG cells after 72 hrs by DAPI staining based assay; type: functional, cell-based, U-87MG ATCC
[18] = biological target: Casein kinase I isoform gamma-1 (Homo sapiens) (UniProt Q9HCP0); assay: Inhibition of recombinant full length human GST-tagged CK1gamma1 expressed in baculovirus expression system at 1 uM by Z'-Lyte assay relative to control
[19] = biological target: MAP kinase-activated protein kinase 2 (Homo sapiens) (UniProt P49137); assay: Inhibition of recombinant human full length His-tagged MK2 expressed in Escherichia coli at 0.1 uM by Z'-Lyte assay relative to control
[20] = biological target: Mitogen-activated protein kinase 1 (Homo sapiens) (UniProt P28482); assay: Inhibition of recombinant human full length GST-tagged ERK2 expressed in Escherichia coli at 0.1 uM by Z'-Lyte assay relative to control
Sequence of Mitogen-activated protein kinase 1 (Homo sapiens) (P28482 whole entry): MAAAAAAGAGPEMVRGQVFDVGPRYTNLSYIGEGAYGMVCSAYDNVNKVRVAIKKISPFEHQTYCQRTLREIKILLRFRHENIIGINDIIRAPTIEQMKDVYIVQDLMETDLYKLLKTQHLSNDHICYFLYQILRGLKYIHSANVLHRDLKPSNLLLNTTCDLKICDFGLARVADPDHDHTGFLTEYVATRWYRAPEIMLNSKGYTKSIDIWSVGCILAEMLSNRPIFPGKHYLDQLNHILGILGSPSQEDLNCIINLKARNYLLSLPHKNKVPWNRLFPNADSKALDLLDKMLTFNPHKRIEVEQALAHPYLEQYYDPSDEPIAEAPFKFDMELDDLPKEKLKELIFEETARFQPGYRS

[21] = biological target: Mitogen-activated protein kinase kinase kinase 14 (Homo sapiens, UniProt Q99558); assay: Inhibition of recombinant human GST-tagged NIK expressed in baculovirus expression system at 0.1 uM by Z'-Lyte assay relative to control
Sequence of Mitogen-activated protein kinase kinase kinase 14 (Q99558 whole entry, looked up, the tested form may be a part): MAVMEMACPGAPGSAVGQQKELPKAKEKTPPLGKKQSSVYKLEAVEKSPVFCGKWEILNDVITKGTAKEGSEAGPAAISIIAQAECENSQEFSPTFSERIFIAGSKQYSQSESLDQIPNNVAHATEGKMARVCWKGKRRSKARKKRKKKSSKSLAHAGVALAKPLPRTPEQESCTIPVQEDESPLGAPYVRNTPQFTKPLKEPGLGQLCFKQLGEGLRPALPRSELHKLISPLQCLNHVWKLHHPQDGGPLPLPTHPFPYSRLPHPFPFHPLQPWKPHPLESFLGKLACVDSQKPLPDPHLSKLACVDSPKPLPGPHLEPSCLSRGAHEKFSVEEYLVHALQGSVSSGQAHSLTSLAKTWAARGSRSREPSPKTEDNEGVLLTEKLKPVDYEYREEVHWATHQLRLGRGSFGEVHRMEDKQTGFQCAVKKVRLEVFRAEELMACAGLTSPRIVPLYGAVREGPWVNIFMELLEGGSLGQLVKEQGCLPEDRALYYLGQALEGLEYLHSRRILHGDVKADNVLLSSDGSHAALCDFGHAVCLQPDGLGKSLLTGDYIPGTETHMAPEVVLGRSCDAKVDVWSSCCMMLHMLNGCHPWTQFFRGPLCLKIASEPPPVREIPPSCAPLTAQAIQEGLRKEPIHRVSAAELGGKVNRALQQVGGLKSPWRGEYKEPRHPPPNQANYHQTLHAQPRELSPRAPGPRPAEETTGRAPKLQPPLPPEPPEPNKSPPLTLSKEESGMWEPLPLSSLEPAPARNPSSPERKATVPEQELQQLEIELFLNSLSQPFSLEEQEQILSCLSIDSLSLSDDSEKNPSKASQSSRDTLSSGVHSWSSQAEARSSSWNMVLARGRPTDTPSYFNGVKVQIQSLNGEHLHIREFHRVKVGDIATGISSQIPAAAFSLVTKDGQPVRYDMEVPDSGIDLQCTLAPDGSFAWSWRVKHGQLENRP

[22] = biological target: Angiopoietin-1 receptor (Homo sapiens) (UniProt Q02763); assay: Inhibition of recombinant human GST-tagged TIE2 cytoplasmic domain expressed in baculovirus expression system at 0.1 uM by Z'-Lyte assay relative to control
[23] = biological target: Ephrin type-A receptor 2 (Homo sapiens) (UniProt P29317); assay: Inhibition of recombinant human GST-tagged EPHA2 cytoplasmic domain expressed in baculovirus expression system at 0.1 uM by Z'-Lyte assay relative to control
[24] = system: Epidermal growth factor receptor (Homo sapiens), P00533 [L858R,T790M]; assay: Inhibition of recombinant human GST-tagged EGFR T790M/L858R double mutant expressed in baculovirus expression system at 1 uM by TR-FRET assay relative to control
[25] = biological target: G protein-coupled receptor kinase 5 (Homo sapiens) (UniProt P34947); assay: Inhibition of recombinant human full length GST-tagged GRK5 expressed in baculovirus expression system at 0.1 uM by Z'-Lyte assay relative to control
[26] = biological target: Cyclin-dependent kinase 4/cyclin D1 (Homo sapiens, UniProt P11802); assay: Inhibition of CDK4/Cyclin-D1 (unknown origin) using histone-H1 as substrate after 90 mins by ADP-Glo assay; type: protein-complex assay
[27] = biological target: Protein-tyrosine kinase 6 (Homo sapiens) (UniProt Q13882); assay: Inhibition of recombinant human full length His-tagged PTK6 expressed in baculovirus expression system at 1 uM by TR-FRET assay relative to control
[28] = biological target: cAMP-dependent protein kinase catalytic subunit alpha (Homo sapiens) (UniProt P17612); assay: Inhibition of recombinant human His-tagged PKA expressed in Escherichia coli at 1 uM by Z'-Lyte assay relative to control

CC1=Nc2c(F)cc(-c3nc(Nc4ccc(C5CCN(C)CC5)cn4)ncc3F)cc2C12CCCC2 [CROZBACICLIB]
inhibition [1]: 5%
inhibition [2]: -5%
inhibition [3]: 26%
inhibition [4]: 0%
inhibition [5]: 87%
inhibition [6]: 48%
inhibition in vivo at 12.5 mg/kg (U-87 MG [7]): 92%
inhibition [8]: 2%
inhibition [9]: 13%
IC50 (CDK6/cyclin D3): 1 nM
inhibition [10]: 29%
inhibition [11]: 12%
inhibition [12]: 99%
Activity (Mus musculus): 4.2%
inhibition [13]: 17%
inhibition [14]: 13%
inhibition [15]: 3%
AUC(0-inf) [16]: 2500 ng·h/mL
IC50 (U-87 MG [17]): 15.3 nM
inhibition [18]: 5%
inhibition [19]: 0%
inhibition [20]: 0%
inhibition [21]: 56%
inhibition [22]: -6%
inhibition [23]: 6%
inhibition [24]: 79%
inhibition [25]: -1%
IC50 [26]: 3 nM
inhibition [27]: 34%
inhibition [28]: 8%
